# From patent publication US10675267B2, “Methods for detection and eradication of myeloid leukemia stem cells” (priority 2015, dated 2020)
# “Also recorded” adds a separate entry of the source.
# Assays:
# [1] = tested on: CD34+ cells from normal aged bone marrow; assay: SL/M2 stromal co-culture with colony and replating assays, normal bone marrow; format: cell-based, human; settings: normal aged bone marrow samples
# Method: In hypothesis-driven experiments, the splicing modulatory compound 17S-FD-895 was tested to determine efficacy in altering splicing activity in cell lines, and to evaluate effects on AML LSC survival and self-renewal capacity in humanized bone marrow stromal co-cultures and in PRIMAGRAFT™ AML LSC models. Cell culture experiments were performed using 293T and sAML (MOLM-13) cell lines, and SL and M2 bone marrow stromal cell lines. Animal studies were performed using immunocompromised Rag2−/−γc−/−[20] or NOD/SCID-IL2RG mice (Jackson Laboratory, Bar Harbor, Me.). Primary AML and normal control samples were used in in vitro hematopoietic stem and progenitor assays after bone marrow stromal co-culture and treatment with splicing modulatory compounds (FD-895 or 17S-FD-895) or vehicle control (DMSO). Colony formation potential and self-renewal capacity were assessed by counting colony numbers (survival) after two weeks of growth in semi-solid (methylcellulose) media, and subsequent replating capacity (self-renewal) was assessed after transfer to fresh methylcellulose for an additional two weeks of culture. Three primary AML samples were utilized to establish PRIMAGRAFT™ models in immunocompromised mice, and mice engrafted with cells from two of these models (AML-37 and AML-08) were treated with 17S-FD-895 or vehicle (DMSO) to evaluate changes in AML LSC survival and self-renewal capacity in vivo. Data were collected by flow cytometry and qRT-PCR analysis of CD34-selected human LSC-enriched cells from engrafted mice.
# Bone marrow SL/M2 monolayers were established from freshly inactivated (irradiated) cells and then human CD34^+ cells selected from AML primary samples (n=8) and normal controls (CD34^+ cells from cord blood, CB, n=6; or aged bone marrow, n=6) were added. Survival and self-renewal of the CD34+ cells were investigated by methylcellulose-based colony and replating assays. Two SF3B1-targeted splicing modulators, FD-895 or 17S-FD-895, were added at the initiation of co-culture at concentrations ranging from 0.1 to 10 μM.
# As previously described (Goff et al., 2013), humanized bone marrow SL/M2 monolayers were inactivated (irradiated) and then human CD34^+ cells selected from AML primary samples and normal controls were added for two weeks of co-culture, followed by methylcellulose-based colony and replating assays. FD-895 or 17S-FD-895 were added at the initiation of co-culture, with DMSO as a vehicle control.
# [2] = tested on: normal cord blood CD34+ cells engrafted in Rag2−/−γc−/− mice; assay: Normal HSPC in vivo model (cord blood CD34+ cell engrafted mice); parameters: species or system mouse; settings: 10 mg/kg versus vehicle
# Method: All animal studies were performed in accordance with UCSD and NIH-equivalent ethical guidelines and were approved by the Institutional Animal Care and Use Committee (IACUC protocol # S06015). For all in vivo experiments, animals of both genders were utilized. […] At 7-28 weeks post-transplant (7-36 weeks old), mice were euthanized, and peripheral blood and single cell suspensions of hematopoietic organs were analyzed for human cell engraftment by FACS. […] Treatment was initiated at 8 weeks post-transplant, and at 10 weeks post-transplant, mice were euthanized, and peripheral blood and single cell suspensions of hematopoietic organs were analyzed for human cell engraftment by FACS. […]
# Flow cytometric analysis was performed on single cell suspensions from each hematopoietic tissue essentially as for primary patient samples, and frequencies of total live human CD45+ cells, CD45+ CD34+ CD38− Lin− (stem) cells, CD45+ CD34+ CD38+ Lin− (progenitor) cells, and CD45+/CD33+ (leukemic blasts) were determined in each tissue. […]
structure (smiles),measurement,setting,value
"CC[C@H](OC)[C@@H](C)[C@H]1O[C@@H]1[C@@H](O)[C@H](C)/C=C/C=C(\C)[C@H]1OC(=O)C[C@H](O)CC[C@@](C)(O)[C@@H](OC(C)=O)/C=C/[C@@H]1C (stereo in doubt) [Formula 17S-FD-895, 17S-FD-895]",erythroid colony formation and self-renewal,[1],not significantly changed; also recorded: no effect on erythroid colonies
same,granulocyte-macrophage (myeloid) colony survival,[1],slight decrease; also recorded: reduces myeloid colony formation
same,total human hematopoietic cell or HSPC survival,[2],no effect
